According to US20170022171A1, “2,5-DISUBSTITUTED CYCLOPENTANECARBOXYLIC ACIDS AND THEIR USE” (Bayer Pharma Aktiengesellschaft, priority 2014, published 2017):

What was measured:
rat hepatocytes = assay: Hepatocyte assay for determination of metabolic stability; type: in vitro ADME; conditions: after incubation with rat hepatocytes
Procedure: The metabolic stability of test compounds towards hepatocytes is determined by incubating the compounds at low concentrations (preferably below or around 1 μM) and at low cell counts (preferably at 1*10^6 cells/ml) in order to ensure maximum linearity of kinetic conditions in the experiment. Seven samples from the incubation solution are taken for the LC-MS analysis within a fixed time pattern, in order to determine the half-life (i.e. the degradation) of the particular compound. This half life is used to calculate various “Clearance” parameters (CL) and “Fmax” values (see below).
The CL and Fmax values are a measure of the phase 1 and phase 2 metabolism of the compounds in the hepatocytes. In order to minimize the influence of the organic solvent on the enzymes in the incubation batches, the concentration thereof is generally limited to 1% (acetonitrile) or 0.1% (DMSO).
For all species and breeds, a hepatocyte cell count in the liver of 1.1*10^8 cells/g of liver is expected.
The parameters calculated and the meanings thereof are: • Fmax well-stirred [%] maximum possible bioavailability after oral administration • Calculation: (1−CLblood well-stirred/QH)*100 • CLblood well-stirred [L/(h*kg)] calculated blood clearance (well-stirred model) • Calculation: (QH*CL′intrinsic)/(QH+CL′intrinsic) • CL′intrinsic[ml/(min*kg)] maximum ability of the liver (of the hepatocytes) to metabolize a compound (assuming that the liver blood flow is not rate-limiting) • Calculation: CL′intrinsic, apparent*species-specific hepatocyte count [1.1*10^8/g liver]*species-specific liver weight [g/kg] • CL′intrinsic, apparent[ml/(min*mg)] normalizes the elimination constant by dividing it by the hepatocyte cell count x used (x*10^6/ml) • Calculation: ke1[1/min]/(cell count [x*10^6]/incubation volume [ml]) • (QH=species-specific liver blood flow).

[1] = biological target: T1, human macrophage elastase (HME/hMMP-12) (Homo sapiens, UniProt P39900); assay: In vitro HME inhibition test (standard or high-sensitivity); type: biochemical; conditions: in some cases mean values
T1 construct: 0.5 nM HME; purchased R&D Systems 917-MP
T1 sequence (P39900 106-470): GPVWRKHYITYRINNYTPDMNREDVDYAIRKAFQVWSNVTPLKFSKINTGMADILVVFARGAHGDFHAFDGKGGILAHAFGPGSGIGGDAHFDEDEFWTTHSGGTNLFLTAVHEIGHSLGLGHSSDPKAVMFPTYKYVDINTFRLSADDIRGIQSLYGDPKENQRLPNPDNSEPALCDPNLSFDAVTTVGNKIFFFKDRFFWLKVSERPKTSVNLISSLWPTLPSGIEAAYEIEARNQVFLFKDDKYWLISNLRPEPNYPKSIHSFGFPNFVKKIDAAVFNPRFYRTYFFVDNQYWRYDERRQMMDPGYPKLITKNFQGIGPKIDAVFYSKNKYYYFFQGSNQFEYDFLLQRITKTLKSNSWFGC
Method in brief: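 Fluorogenic assay: 0.5 nM autoactivated HME with 5 µM Mca-Pro-Leu-Gly-Leu-Glu-Glu-Ala-Dap(Dnp)-NH2 in HEPES pH 7.4 buffer (NaCl, CaCl2, ZnCl2, EDTA, Brij), 2 h at 37 °C; ex 323/em 393 nm. IC50 from fluorescence versus concentration. High-sensitivity format: ~0.05 nM enzyme, ~16 h incubation.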

Cc1ccc2nnn(C[C@H]3CC[C@@H](C(=O)c4ccc(OCc5ccccc5)cc4)[C@@H]3C(=O)O)c(=O)c2c1 (racemic) [Example 92, (+)-(1RS,2RS,5SR)-2-[4-(Benzyloxy)benzoyl]-5-[(6-methyl-4-oxo-1,2,3-benzotriazin-3(4H)-yl)methyl]cyclopentanecarboxylic acid]
CLblood (calculated blood clearance, well-stirred) (rat hepatocytes): 16.8 mL/min/kg | Fmax (maximum possible bioavailability after oral administration, well-stirred) (rat hepatocytes): 76.1%

Cc1ccc2nnn(C[C@H]3CC[C@@H](C(=O)c4ccc(OCc5ccc(F)cc5)cc4)[C@@H]3C(=O)O)c(=O)c2c1 (racemic) [Example 95, (+)-(1RS,2RS,5SR)-2-{4-[(4-Fluorobenzyl)oxy]benzoyl}-5-[(6-methyl-4-oxo-1,2,3-benzotriazin-3(4H)-yl)methyl]cyclopentanecarboxylic acid]
CLblood (calculated blood clearance, well-stirred) (rat hepatocytes): 8.33 mL/min/kg | Fmax (maximum possible bioavailability after oral administration, well-stirred) (rat hepatocytes): 88.2%

Cc1ccc2nnn(C[C@H]3CC[C@@H](C(=O)c4ccc(OCc5cccc(C(F)(F)F)c5)cc4)[C@@H]3C(=O)O)c(=O)c2c1 (racemic) [Example 101, (+)-(1RS,2SR,5RS)-2-[(6-Methyl-4-oxo-1,2,3-benzotriazin-3(4H)-yl)methyl]-5-(4-{[3-(trifluoromethyl)benzyl]oxy}benzoyl)cyclopentanecarboxylic acid]
CLblood (calculated blood clearance, well-stirred) (rat hepatocytes): 1.5 mL/min/kg | Fmax (maximum possible bioavailability after oral administration, well-stirred) (rat hepatocytes): 97.8%

Cc1ccc2nnn(C[C@H]3CC[C@@H](C(=O)c4ccc(OCc5cccc(Cl)c5)cc4)[C@@H]3C(=O)O)c(=O)c2c1 (racemic) [Example 104, (+)-(1RS,2RS,5SR)-2-{4-[(3-Chlorobenzyl)oxy]benzoyl}-5-[(6-methyl-4-oxo-1,2,3-benzotriazin-3(4H)-yl)methyl]cyclopentanecarboxylic acid]
CLblood (calculated blood clearance, well-stirred) (rat hepatocytes): 16.5 mL/min/kg | Fmax (maximum possible bioavailability after oral administration, well-stirred) (rat hepatocytes): 76.3%

Cc1ccc2nnn(C[C@H]3CC[C@@H](C(=O)c4ccc(OCc5cccc(OC(F)(F)F)c5)cc4)[C@@H]3C(=O)O)c(=O)c2c1 (racemic) [Example 110, (+)-(1RS,2SR,5RS)-2-[(6-Methyl-4-oxo-1,2,3-benzotriazin-3(4H)-yl)methyl]-5-(4-{[3-(trifluoromethoxy)benzyl]oxy}benzoyl)cyclopentanecarboxylic acid]
CLblood (calculated blood clearance, well-stirred) (rat hepatocytes): 6.67 mL/min/kg | Fmax (maximum possible bioavailability after oral administration, well-stirred) (rat hepatocytes): 90.4%

COc1cccc(COc2ccc(C(=O)[C@@H]3CC[C@H](Cn4nnc5ccc(C)cc5c4=O)[C@H]3C(=O)O)cc2)c1 (single isomer, unassigned) [Example 108, (−)-(1RS,2RS,5SR)-2-{4-[(3-Methoxybenzyl)oxy]benzoyl}-5-[(6-methyl-4-oxo-1,2,3-benzotriazin-3(4H)-yl)methyl]cyclopentanecarboxylic acid]
IC50 [1]: 470 nM

Cc1ccc2nnn(C[C@H]3CC[C@@H](C(=O)c4ccc(OCc5cccc(OC(F)(F)F)c5)cc4)[C@@H]3C(=O)O)c(=O)c2c1 (single isomer, unassigned) [Example 111, (−)-(1RS,2SR,5RS)-2-[(6-Methyl-4-oxo-1,2,3-benzotriazin-3(4H)-yl)methyl]-5-(4-{[3-(trifluoromethoxy)benzyl]oxy}benzoyl)cyclopentanecarboxylic acid]
IC50 [1]: 140 nM

Cc1ccc2nnn(C[C@H]3CC[C@@H](C(=O)c4ccc(OCCc5ccccc5)cc4)[C@@H]3C(=O)O)c(=O)c2c1 (single isomer, unassigned) [Example 113, (+)-(1RS,2SR,5RS)-2-[(6-Methyl-4-oxo-1,2,3-benzotriazin-3(4H)-yl)methyl]-5-[4-(2-phenylethoxy)benzoyl]cyclopentanecarboxylic acid]
IC50 [1]: 0.24 nM

Cc1ccc2nnn(C[C@H]3CC[C@@H](C(=O)c4ccc(OCCc5ccccc5)cc4)[C@@H]3C(=O)O)c(=O)c2c1 (single isomer, unassigned) [Example 114, (−)-(1RS,2SR,5RS)-2-[(6-Methyl-4-oxo-1,2,3-benzotriazin-3(4H)-yl)methyl]-5-[4-(2-phenylethoxy)benzoyl]cyclopentanecarboxylic acid]
IC50 [1]: 110 nM

Cc1ccc2nnn(C[C@H]3CC[C@@H](C(=O)c4ccc(OCC5CCCCC5)cc4)[C@@H]3C(=O)O)c(=O)c2c1 (single isomer, unassigned) [Example 118, (−)-(1RS,2RS,5SR)-2-[4-(Cyclohexylmethoxy)benzoyl]-5-[(6-methyl-4-oxo-1,2,3-benzotriazin-3(4H)-yl)methyl]cyclopentanecarboxylic acid]
IC50 [1]: 150 nM

CCCCCCOc1ccc(C(=O)[C@@H]2CC[C@H](Cn3nnc4ccc(C)cc4c3=O)[C@H]2C(=O)O)cc1 (single isomer, unassigned) [Example 122, (−)-(1RS,2RS,5SR)-2-[4-(Hexyloxy)benzoyl]-5-[(6-methyl-4-oxo-1,2,3-benzotriazin-3(4H)-yl)methyl]cyclopentanecarboxylic acid]
IC50 [1]: 190 nM

CCCCCOc1ccc(C(=O)[C@@H]2CC[C@H](Cn3nnc4ccc(C)cc4c3=O)[C@H]2C(=O)O)cc1 (single isomer, unassigned) [Example 124, (+)-(1RS,2SR,5RS)-2-[(6-Methyl-4-oxo-1,2,3-benzotriazin-3(4H)-yl)methyl]-5-[4-(pentyloxy)benzoyl]cyclopentanecarboxylic acid]
IC50 [1]: 0.062 nM

CCCCCOc1ccc(C(=O)[C@@H]2CC[C@H](Cn3nnc4ccc(C)cc4c3=O)[C@H]2C(=O)O)cc1 (single isomer, unassigned) [Example 125, (−)-(1RS,2SR,5RS)-2-[(6-Methyl-4-oxo-1,2,3-benzotriazin-3(4H)-yl)methyl]-5-[4-(pentyloxy)benzoyl]cyclopentanecarboxylic acid]
IC50 [1]: 6.7 nM

COC(=O)Nc1cccc(COc2ccc(C(=O)[C@H]3CC[C@@H](Cn4nnc5ccc(C(F)(F)F)cc5c4=O)[C@@H]3C(=O)O)cc2)c1 (stereo in doubt) [Example 30, (+/−)-(1RS,2RS,5SR)-2-{4-({3-[(Methoxycarbonyl)amino]benzyl}oxy)benzoyl}-5-{[4-oxo-6-(trifluoromethyl)-1,2,3-benzotriazin-3(4H)-yl]methyl}cyclopentanecarboxylic acid]
IC50 [1]: 0.037 nM

(−)-(1RS,2RS,5SR)-2-{4-[(3,4-Dichlorobenzyl)oxy]benzoyl}-5-{[4-oxo-6-(trifluoromethyl)-1,2,3-benzotriazin-3(4H)-yl]methyl}cyclopentanecarboxylic acid [Example 29]
IC50 [1]: 4.1 nM

(−)-(1RS,2RS,5SR)-2-{4-[Cyclohexyl)methyl)sulphanyl]benzoyl}-5-{[4-oxo-6-(trifluoromethyl)-1,2,3-benzotriazin-3(4H)-yl]methyl}cyclopentanecarboxylic acid [Example 87]
IC50 [1]: 8.3 nM

(−)-(1RS,2SR,5RS)-2-{[4-Oxo-6-(trifluoromethyl)-1,2,3-benzotriazin-3(4H)-yl]methyl}-5-{4-[(2-phenylethy)sulphanyl]benzoyl}cyclopentanecarboxylic acid [Example 84]
IC50 [1]: 33 nM
